Reference: PMC4256282, “Profound Activity of the Anti-cancer Drug Bortezomib against Echinococcus multilocularis Metacestodes Identifies the Proteasome as a Novel Drug Target for Cestodes” (PLoS Neglected Tropical Diseases, 2014)

Key:
bovine chymotrypsin = bovine chymotrypsin (Bos taurus, UniProt P00766); assay: in-gel fluorescent zymography with SLLVT-AMC, chymotrypsin […] ng per lane, single BTZ concentration; assay type: biochemical
[1] = biological target: T1, proteasome subunit beta 5 of E. multilocularis (EmPSMB5, EmuJ_000590200_1) (Echinococcus multilocularis, UniProt A0A068Y5K9); assay: biochemical
T1 sequence (A0A068Y5K9 66-269): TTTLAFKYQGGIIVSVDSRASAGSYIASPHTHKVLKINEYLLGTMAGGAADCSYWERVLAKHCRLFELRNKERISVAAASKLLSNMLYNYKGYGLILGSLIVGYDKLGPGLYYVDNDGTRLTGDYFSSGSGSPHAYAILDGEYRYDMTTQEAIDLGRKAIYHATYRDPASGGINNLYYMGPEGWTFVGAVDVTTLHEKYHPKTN

For CC(C)C[C@H](NC(=O)[C@H](Cc1ccccc1)NC(=O)c1cnccn1)B(O)O [BTZ, bortezomib], the “in-gel fluorescent zymography with SLLVT-AMC, chymotrypsin 5 ng per lane, single” value (bovine chymotrypsin) was “BTZ can inhibit also other targets, such as for example chymotrypsin (as shown in the control of Figure 7B)” and the IC50 [1] was 760 nM.
